# Source: patent US5470836A, “Paromomycin or its derivatives or salts thereof in combination with sodium stirogluconate for parenteral treatment of human parasitic diseases” (priority 1988, dated 1995)
# Where “and” joins values, the source holds several entries; their conditions need not be identical. Equal entries are not always repeated. Entries after “also recorded” stand apart in the source; their conditions may differ.
# Columns and labels:
# [1] = Drug safety: adverse effects and complications (Example 2); type: in vivo, human
# Method: (§1) Patients newly diagnosed with visceral leighmaniasis, confirmed by the presence of leishmaniasis amastigotes in spleen aspirates, were allocated randomly to groups subjected to the following treatments:
# (§2) 1) IV/IM sodium stibogluconate (SbV) 20 mg/kg body weight once per day;
# (§3) 2) IM paromomycin sulphate (PM) 14-16 mg/kg body weight once per day;
# (§4) 3) IV/IM sodium stibogluconate 20 mg/kg body weight once per day and paromomycin sulphate 14-16 mg/kg body weight once per day.
# (§5) All treatments were administered until the first negative spleen aspirate was obtained, or for 20 consecutive days regardless of aspirate findings.
# (§6) The following procedures were conducted for patient assessment at intake and at suitable intervals during and after treatment: clinical history writeup: physical examination: body weight: chest X-ray: ECG tracing: liver and kidney function tests: blood picture and blood smears (to rule out malaria): complete urinalysis: stool examination: prothrombin time: and spleen aspirate smear examination by the method of Chulay & Bryceson, Quantitations of amastigotes of leishmania donovani in smears of splenic aspirates from patients with visceral leishmaniasis, American Journal of Tropical Medicine and Hygiene, 32, 1983, 475-479.
# (§7) Drug safety was assessed for each treatment regime in terms of incidence of drug-related signs and symptoms and of laboratory test results return abnormalities. The assembled data were processed statistically by the Fisher's exact test (chi-square) and Pearson's correlation coefficient.
# visceral leishmaniasis [2] = assay: Clinical, haematologic and parasite indices during treatment and follow-up (Example 2); type: in vivo, human; settings: mean
# Method: as §1, §2, §3, §4, §5, §6
# [3] = test system: visceral leishmaniasis (leishmaniasis amastigotes in spleen aspirates); assay: Randomised clinical trial in newly diagnosed visceral leishmaniasis: clinical and parasitologic cure (Example 2); type: in vivo, human; settings: for Clinical cures, % / Clinical cures, No.: at termination, complete abatement of initial symptoms with marked reduction of spleen size; for Apparent cures, % / Apparent cures, No.: negative spleen aspirate smears at termination of treatment; for Failures, % / Failures, No.: partial cures and relapses; for Partial cures, % / Partial cures, No.: persistence of low parasite counts in terminal spleen aspirates; for Definite cures, % / Definite cures, No.: persisting clinical cure with negative spleen aspirates 6 months after termination; for Relapses, % / Relapses, No.: reappearance of leishmanial parasites after an apparent cure; for Mean treatment duration: treated until first negative spleen aspirate or for 20 consecutive days
# Method: as §1, §2, §3, §4, §5
# Exclusion criteria were: […]; known allergy to aminoglycoside compounds: pregnancy; haemoglobin assay below 40 g/l; abnormal prothrombin time; impaired liver or renal function; major concurrent infection; previous drug treatment for leishmaniasis; and spleen smear-parasite grading of less than 4+.
# as §6
# Treatment of effectiveness was graded under the following headings:
# Clinical cure: complete abatement of initial symptoms with marked reduction of spleen size;
# Partial cure: persistence of low parasite counts in terminal spleen aspirates;
# Apparent cure: negative spleen aspirate smears at termination of treatment;
# Relapse: reappearance of leishmanial parasites after an apparent cure;
# Definite cure: persisting clinical cure with negative spleen aspirates 6 months after termination of treatment;
# Failures: partial cures and relapses.
# as §7
# visceral leishmaniasis [4] = settings: parenteral, 20 mg/kg body weight over 30 days; cited from earlier work
# [5] = Blood biochemistry during treatment and follow-up (Example 2); type: in vivo, human
# Method: as §2, §3, §4, §5, §6
# The assembled data were processed statistically by the Fisher's exact test (chi-square) and Pearson's correlation coefficient.
# Kala-azar = settings: 20 mg SbV/kg daily for 40 days; cited from earlier work
compound,measurement,setting,value
"NC[C@@H]1O[C@H](O[C@H]2[C@@H](O)[C@H](O[C@@H]3[C@@H](O)[C@H](N)C[C@H](N)[C@H]3O[C@H]3O[C@H](CO)[C@@H](O)[C@H](O)[C@H]3N)O[C@@H]2CO)[C@H](N)[C@@H](O)[C@@H]1O [PM, paromomycin sulphate]","Adverse effects, %",[1]; in vivo,0%
same,"Adverse effects, No.",[1]; in vivo,0 No.
same,antibiotic treatment needed for pneumonia,[1]; in vivo,did not need additional antibiotic medication
same,"bouts of pneumonia, cases",[1]; in vivo,4 cases
same,side effects (in words),[1]; in vivo,no side effects
same,Eosinophil count,visceral leishmaniasis [2]; Day 0 (intake),0 /cu mm
same,Heart rate,visceral leishmaniasis [2]; Day 0 (intake),105 min⁻¹
same,Hemoglobin assay,visceral leishmaniasis [2]; Day 0 (intake),7.1 g/dL
same,Parasite grading,visceral leishmaniasis [2]; Day 0 (intake),5
same,Spleen size,visceral leishmaniasis [2]; Day 0 (intake),15.5 cm
same,Temp,visceral leishmaniasis [2]; Day 0 (intake),38.3 °C
same,Weight,visceral leishmaniasis [2]; Day 0 (intake),34.0 kg
same,Eosinophil count,visceral leishmaniasis [2]; Day 20,2 /cu mm
same,Heart rate,visceral leishmaniasis [2]; Day 20,84 min⁻¹
same,Hemoglobin assay,visceral leishmaniasis [2]; Day 20,10.0 g/dL
same,Parasite grading,visceral leishmaniasis [2]; Day 20,1
same,Spleen size,visceral leishmaniasis [2]; Day 20,8.4 cm
same,Temp,visceral leishmaniasis [2]; Day 20,36.1 °C
same,Weight,visceral leishmaniasis [2]; Day 20,37.0 kg
same,Eosinophil count,visceral leishmaniasis [2]; Day 75,1 /cu mm
same,Heart rate,visceral leishmaniasis [2]; Day 75,82 min⁻¹
same,Hemoglobin assay,visceral leishmaniasis [2]; Day 75,12.3 g/dL
same,Parasite grading,visceral leishmaniasis [2]; Day 75,1
same,Spleen size,visceral leishmaniasis [2]; Day 75,4.3 cm
same,Temp,visceral leishmaniasis [2]; Day 75,36.1 °C
same,Weight,visceral leishmaniasis [2]; Day 75,39.1 kg
same,"Clinical cures, %",[3],100%
same,"Clinical cures, No.",[3],19 No.
same,incidence of relapses (in words),[3]; comparison of treatment groups,least incidence of relapses; also recorded: smallest share of relapses; also recorded: low rate of relapses
same,parasitologic effectiveness (in words),[3]; comparison of treatment groups,best results
same,share of partial cures (in words),[3]; comparison of treatment groups,highest share of partial cures
same,"Apparent cures, %",[3],84.2%
same,"Apparent cures, No.",[3],16 No.
same,"Failures, %",[3],21%
same,"Failures, No.",[3],4 No.
same,"Partial cures, %",[3],15.8%
same,"Partial cures, No.",[3],3 No.
same,"Definite cures, %",[3],79%
same,"Definite cures, No.",[3],15 No.
same,"Relapses, %",[3],5.2%
same,"Relapses, No.",[3],1 No.
same,Mean treatment duration,[3],19 days
sodium stibogluconate [SbV],cure rate,visceral leishmaniasis [4],about 80%
same,ALAT (Alanine aminotransferase),[5]; Day 0,25.4 I.U./l
same,ALP (Alkaline phosphatase),[5]; Day 0,87.6 I.U./l
same,ASAT (Aspartate aminotransferase),[5]; Day 0,20.2 I.U./l
same,Albumin,[5]; Day 0,31.3 g/L
same,BUN assay,[5]; Day 0,8.2 mmol/L
same,Bilirubin,[5]; Day 0,6.4 µmol/L
same,Creatinine,[5]; Day 0,73.6 µmol/L
same,ALAT (Alanine aminotransferase),[5]; Day 10,24.0 I.U./l
same,ALP (Alkaline phosphatase),[5]; Day 10,79.1 I.U./l
same,ASAT (Aspartate aminotransferase),[5]; Day 10,19.2 I.U./l
same,Albumin,[5]; Day 10,30.3 g/L
same,BUN assay,[5]; Day 10,8.1 mmol/L
same,Bilirubin,[5]; Day 10,4.1 µmol/L
same,Creatinine,[5]; Day 10,68.0 µmol/L
same,ALAT (Alanine aminotransferase),[5]; Day 20,22.0 I.U./l
same,ALP (Alkaline phosphatase),[5]; Day 20,71.0 I.U./l
same,ASAT (Aspartate aminotransferase),[5]; Day 20,21.0 I.U./l
same,Albumin,[5]; Day 20,29.5 g/L
same,BUN assay,[5]; Day 20,4.0 mmol/L
same,Bilirubin,[5]; Day 20,3.8 µmol/L
same,Creatinine,[5]; Day 20,53.0 µmol/L
same,ALAT (Alanine aminotransferase),[5]; Day 75,25.3 I.U./l
same,ALP (Alkaline phosphatase),[5]; Day 75,83.7 I.U./l
same,ASAT (Aspartate aminotransferase),[5]; Day 75,25.5 I.U./l
same,Albumin,[5]; Day 75,36.6 g/L
same,BUN assay,[5]; Day 75,3.8 mmol/L
same,Bilirubin,[5]; Day 75,4.5 µmol/L
same,Creatinine,[5]; Day 75,73.5 µmol/L
same,ALAT (Alanine aminotransferase),[5]; Day 195,23.0 I.U./l
same,ALP (Alkaline phosphatase),[5]; Day 195,84.0 I.U./l
same,ASAT (Aspartate aminotransferase),[5]; Day 195,22.0 I.U./l
same,Albumin,[5]; Day 195,40.0 g/L
same,BUN assay,[5]; Day 195,4.0 mmol/L
same,Bilirubin,[5]; Day 195,4.0 µmol/L
same,Creatinine,[5]; Day 195,78.9 µmol/L
same,"Adverse effects, %",[1]; in vivo,27%
same,"Adverse effects, No.",[1]; in vivo,3 No.
same,"bouts of pneumonia, cases",[1]; in vivo,5 cases
same,side effects (in words),[1]; in vivo,distinctly more side effects
same,antibiotic treatment needed for pneumonia,[1]; patients with pneumonia,required antibiotic treatment
same,failures,Kala-azar,8%
same,Eosinophil count,visceral leishmaniasis [2]; Day 0 (intake),0 /cu mm
same,Heart rate,visceral leishmaniasis [2]; Day 0 (intake),112 min⁻¹
same,Hemoglobin assay,visceral leishmaniasis [2]; Day 0 (intake),7.6 g/dL
same,Parasite grading,visceral leishmaniasis [2]; Day 0 (intake),5
same,Spleen size,visceral leishmaniasis [2]; Day 0 (intake),14.5 cm
same,Temp,visceral leishmaniasis [2]; Day 0 (intake),38.5 °C
same,Weight,visceral leishmaniasis [2]; Day 0 (intake),33.2 kg
same,Eosinophil count,visceral leishmaniasis [2]; Day 20,1 /cu mm
same,Heart rate,visceral leishmaniasis [2]; Day 20,92 min⁻¹
same,Hemoglobin assay,visceral leishmaniasis [2]; Day 20,8.9 g/dL
same,Parasite grading,visceral leishmaniasis [2]; Day 20,1
same,Spleen size,visceral leishmaniasis [2]; Day 20,7 cm
same,Temp,visceral leishmaniasis [2]; Day 20,36.2 °C
same,Weight,visceral leishmaniasis [2]; Day 20,27.3 kg
same,Eosinophil count,visceral leishmaniasis [2]; Day 75,1 /cu mm
same,Heart rate,visceral leishmaniasis [2]; Day 75,80 min⁻¹
same,Hemoglobin assay,visceral leishmaniasis [2]; Day 75,11.6 g/dL
same,Parasite grading,visceral leishmaniasis [2]; Day 75,1
same,Spleen size,visceral leishmaniasis [2]; Day 75,5 cm
same,Temp,visceral leishmaniasis [2]; Day 75,36.9 °C
same,Weight,visceral leishmaniasis [2]; Day 75,36.7 kg
same,"Clinical cures, %",[3],100%
same,"Clinical cures, No.",[3],11 No.
same,parasitologic effectiveness (in words),[3]; comparison of treatment groups,by far the least effective of all
same,"Apparent cures, %",[3],90.9%
same,"Apparent cures, No.",[3],10 No.
same,"Failures, %",[3],45.5% and 45. %
same,"Failures, No.",[3],5 No.
same,"Partial cures, %",[3],9.1%
same,"Partial cures, No.",[3],1 No.
same,"Definite cures, %",[3],54.5%
same,"Definite cures, No.",[3],6 No.
same,"Relapses, %",[3],36.4%
same,"Relapses, No.",[3],4 No.
same,Mean treatment duration,[3],17 days
vitamin K,incidence of epistaxis,"[1]; vitamin K 10 mg daily for 5 days, low initial haemoglobin and prolonged prothrombin time",significantly reduced
